Assay results taken from US20250084080A1, “CRYSTALLINE AND SALT FORMS OF AN NLRP3 INHIBITOR” (BioAge Labs, Inc., priority 2023, published 2025).

What was measured:
Type in all cases: physicochemical
[1] = Hygroscopicity by dynamic vapor sorption (DVS) at 25° C.; settings: for Desorp. (%) / Sorp. (%): DVS 25° C.
Procedure: Dynamic vapor sorption (DVS) was performed on an Intrinsic, Advantage or Adventure with an oven temperature of 25° C. using water as a solvent. The sample mass was about 5-10 mg using the following method: • Cycle: 40-0-95-0-40% RH • Stage Step: 10% • Equilibrium: 0.002 dm/dt (%/min) • Minimum dm/dt stability duration: 60 min • Maximum dm/dt stage time: 360 min. Hygroscopicity of free form Pattern B was evaluated by dynamic vapor sorption (DVS) test at 25° C. […] It absorbed about 0.8% water at 80% RH at 25° C.

[2] = Bulk stability (solid state, 1 week; HPLC, XRPD, IC, color); set-up: key to CL (color): A: no change of color; B: slight discoloration; C: medium discoloration; D: strong discoloration; settings: for Bulk (HPLC) Purity / Bulk (XRPD) / CL (color): Solid state
Procedure: Bulk stability of free form Pattern B was evaluated at 25° C./92.5% RH in an open container, at 40° C./75% RH in an open container and at 60° C. in a tight container over 1 week.

[3] = Solubility at 37° C. in buffers and biorelevant media, XRPD of residual solid; settings: for solubility at 2 h / solubility at 24 h: thermodynamic from solid
Procedure: Solubility of BAL-0748 free form Pattern B was investigated in pH 1.2 HCl buffer, pH 4.5 50 mM acetate buffer, pH 6.8 50 mM phosphate buffer, water, pH 1.6 FaSSGF, pH 6.5 FaSSIF-v1, pH 5.0 FeSSIF-v1 and 2% HPMC+1% Pluronic F68 in pH 4.5 50 mM acetate buffer at 37° C. for 2 h and 24 h. Residual solids after the solubility test were analyzed by XRPD.
Solubility of the free form Pattern A, the HCl salt Pattern A, the phosphate salt Pattern A, and the sodium salt Pattern A was measured in pH 1.2 HCl buffer, pH 4.5 acetate buffer (50 mM), pH 6.8 phosphate buffer (50 mM), water, pH 1.6 FaSSGF, pH 6.5 FaSSIF-v1, pH 5.0 FeSSIF-v1, and 2% HPMC+1% Pluronic F68 in pH 4.5 acetate buffer (50 mM) at 37° C. for 2 hours and 24 hours.
10.4 mg of the free form Pattern A, 10.0 mg of the free form Pattern B, 10.8 mg of the HCl salt Pattern A, 12.2 mg of the phosphate salt Pattern A, or 10.5 mg of the sodium salt Pattern A was weighed into a 20 mL glass vial, respectively. 5 mL of solubility medium was added. The salt amount used was equivalent to 10 mg anhydrous free form. Obtained suspensions were stirred at 37° C. at 400 rpm and sampled at 2 hours and at 24 hours. The samples were centrifuged at 37° C. at 14,000 rpm for 5 min. Supernatants were analyzed by HPLC and PH meter for solubility and pH value, respectively. Residual solids (wet cakes) from the 24 hours samples were also characterized by XRPD to determine physical form.

[4] = 25° C./92.5% RH open, 40° C./75% RH open, 60° C. tight container
[5] = aqueous buffer, pH 4.5 acetate buffer (50 mM), 37° C.
[6] = aqueous buffer, pH 6.8 phosphate buffer (50 mM), 37° C.
[7] = aqueous with cosolvent or surfactant or cyclodextrin, 2% HPMC + 1% Pluronic F68 in pH 4.5 acetate buffer (50 mM), 37° C.
[8] = fassgf or other biorelevant, FaSSGF, pH 1.6, 37° C.
[9] = simulated gastric fluid, pH 1.2 HCl buffer, 37° C.

## CCOc1cc(C(=O)N(C)Cc2cnc(CO)c3cn[nH]c23)ccc1-c1cc(F)cc(F)c1.O=P(O)(O)O [Phosphate salt Pattern A, 2-ethoxy-3′,5′-difluoro-N-((4-(hydroxymethyl)-1H-pyrazolo[4,3-c]pyridin-7-yl)methyl)-N-methyl-[1,1′-biphenyl]-4-carboxamide phosphoric acid salt]
[1]; 0% RH, 1st desorption
  Desorp. (%): 0.03%
[1]; 0% RH, 1st sorption
  Sorp. (%): 0.03%
[1]; 0% RH, 2nd desorption
  Desorp. (%): 0.00%
[1]; 0% RH, 2nd sorption
  Sorp. (%): 0.00%
[1]; 10% RH, 1st desorption
  Desorp. (%): 0.12%
[1]; 10% RH, 1st sorption
  Sorp. (%): 0.11%
[1]; 10% RH, 2nd desorption
  Desorp. (%): 0.09%
[1]; 10% RH, 2nd sorption
  Sorp. (%): 0.09%
[1]; 20% RH, 1st desorption
  Desorp. (%): 0.16%
[1]; 20% RH, 1st sorption
  Sorp. (%): 0.15%
[1]; 20% RH, 2nd desorption
  Desorp. (%): 0.14%
[1]; 20% RH, 2nd sorption
  Sorp. (%): 0.13%
[1]; 30% RH, 1st desorption
  Desorp. (%): 0.20%
[1]; 30% RH, 1st sorption
  Sorp. (%): 0.18%
[1]; 30% RH, 2nd desorption
  Desorp. (%): 0.18%
[1]; 30% RH, 2nd sorption
  Sorp. (%): 0.17%
[1]; 40% RH, 1st desorption
  Desorp. (%): 0.24%
[1]; 40% RH, 1st sorption
  Sorp. (%): 0.23%
[1]; 40% RH, 2nd desorption
  Desorp. (%): 0.23%
[1]; 40% RH, 2nd sorption
  Sorp. (%): 0.21%
[1]; 50% RH, 1st sorption
  Sorp. (%): 0.27%
[1]; 50% RH, 2nd desorption
  Desorp. (%): 0.29%
[1]; 60% RH, 1st sorption
  Sorp. (%): 0.32%
[1]; 60% RH, 2nd desorption
  Desorp. (%): 0.35%
[1]; 70% RH, 1st sorption
  Sorp. (%): 0.37%
[1]; 70% RH, 2nd desorption
  Desorp. (%): 0.41%
[1]; 80% RH, 1st sorption
  Sorp. (%): 0.45%
[1]; 80% RH, 2nd desorption
  Desorp. (%): 0.48%
[1]; 90% RH, 1st sorption
  Sorp. (%): 0.61%
[1]; 90% RH, 2nd desorption
  Desorp. (%): 0.63%
[1]; 95% RH, 1st sorption
  Sorp. (%): 0.82%
[1]; 95% RH, 2nd desorption
  Desorp. (%): 0.82%
[1]; DVS at 25° C.
  XRPD after DVS test: No form change
[1]; DVS at 25° C., 80% RH
  Water absorbed at 80% RH: It absorbed 0.5%
[2]; [4]
  Bulk stability, chemical and physical: chemically and physically stable
  Degradation by HPLC: no obvious degradation
  Form change by XRPD: no form change
[2]; 25° C./92.5% RH, open
  Bulk (HPLC) Purity: 98.2%
  Bulk (XRPD): No form change
  CL (color): A
[2]; 40° C./75% RH, open
  Bulk (HPLC) Purity: 98.2%
  Bulk (XRPD): No form change
  CL (color): A
[2]; 60° C., closed
  Bulk (HPLC) Purity: 98.2%
  Bulk (XRPD): No form change
  CL (color): A
[3]; 2% HPMC + 1% Pluronic F68 in pH 4.5 acetate buffer (50 mM), 37° C.
  pH of supernatant at 24 h: (4.5)
[3]; 2% HPMC+1% Pluronic F68 in acetate buffer (pH 4.5)
  Solubility compared with the free form Pattern A: comparable solubility
[3]; FaSSGF, pH 1.6, 37° C.
  pH of supernatant at 24 h: (1.6)
[3]; FaSSIF-v1, pH 6.5, 37° C.
  pH of supernatant at 24 h: (6.2)
  solubility at 2 h: 8.4 µg/mL
  solubility at 24 h: 13.7 µg/mL
[3]; FeSSIF-v1, pH 5.0, 37° C.
  pH of supernatant at 24 h: (4.9)
  solubility at 2 h: 140 µg/mL
  solubility at 24 h: 159 µg/mL
[3]; Water, 37° C.
  pH of supernatant at 24 h: (2.6)
  solubility at 2 h: 384 µg/mL
  solubility at 24 h: 442 µg/mL
[3]; [5]
  solubility at 2 h: 9.4 µg/mL
  solubility at 24 h: 11.8 µg/mL
[3]; [6]
  solubility at 2 h: 2.4 µg/mL
  solubility at 24 h: 2.9 µg/mL
[3]; [7]
  solubility at 2 h: 16.4 µg/mL
  solubility at 24 h: 17.9 µg/mL
[3]; [8]
  solubility at 2 h: 710 µg/mL
  solubility at 24 h: 653 µg/mL
[3]; pH 1.2 HCl buffer, 37° C.
  pH of supernatant at 24 h: (1.2)
[3]; pH 4.5 acetate buffer (50 mM), 37° C.
  pH of supernatant at 24 h: (4.4)
[3]; pH 6.8 phosphate buffer (50 mM), 37° C.
  pH of supernatant at 24 h: (6.7)
[3]; pure water
  Solubility compared with the free form Pattern A: obviously higher solubility
[3]; [9]
  solubility at 2 h: 402 µg/mL
  solubility at 24 h: 390 µg/mL
